Each structure is given as a SMILES string. pIC50: −log10 of the molar value.

The record followed here is patent US20090298889A1, “PHARMACEUTICAL COMPOSITIONS CONTAINING 2-PYRIDONE DERIVATIVES AS EFFECTIVE COMPONENTS” (SATO PHARMACEUTICAL CO., LTD., priority 2005, published 2009).

In series [1] the test system is neutrophils. In words: Test for examining cell adhesion-inhibitory effect (TNF-α-stimulated neutrophil adhesion to keyhole limpet hemocyanin-coated plate, Alamar blue fluorescence). In kind it is cell-based, human (healthy person). The following applies: 0.5 h, human neutrophils stimulated with TNF-α 10 ng/mL, 37° C. 30 minutes, Probit technique, read-out: IC50 (50%-inhibitory concentration of cell adhesion). As to the method: To a 96-well culture plate coated, in advance, with keyhole limpet hemocyanin, there was added 0.05 mL each of a solution of a candidate test compound in dimethylsulfoxide diluted to a final dimethylsulfoxide concentration of 1% with DMEM. A blood sample was collected from a healthy person through the median vein of elbow and the neutrophils were fractionated or isolated through the use of Mono-Poly Separation Liquid and the centrifugation. The fractionated neutrophils were suspended in DMEM to a concentration of 1×10^6 cells/mL and 0.1 mL of the resulting neutrophil-containing suspension was added to each well of the culture plate. Moreover, 40 ng/mL of tumor-necrosis factor (TNF)-α was diluted with DMEM to a final concentration of 10 ng/mL and 0.05 mL of the resulting diluted solution was added to each well of the culture plate. After the culture plate was allowed to stand at 37° C. for 30 minutes in a CO2-incubator, the plate was washed three times (thrice) with 0.2 mL of phosphate-buffered physiological saline (PBS(−), available from GIBCO Corporation). In addition, to each well, there was added 0.1 mL of a 10% solution of Alamar blue in DMEM, the culture plate was allowed to stand at 37° C. for 3 hours in a CO2-incubator, and then the intensity of fluorescent rays emitted from the adhered neutrophil cells was determined (Ex: 544 nm; Em: 590 nm). In this respect, the sample group free of any stimulation was defined to be the non-adhesion control group and the sample group stimulated with TNF-α was referred to as the adhesion control group to thus determine or calculate the cell adhesion-inhibitory rate of the compound of the present invention at each concentration, and the 50%-inhibitory concentration (IC50) was calculated from the cell adhesion-inhibitory rates thus determined according to the Probit technique. The same test procedures used above were repeated except for using different kinds of candidate compounds.
Background: Resazurin is reduced to fluorescent resorufin, in cell work by metabolically active cells.

Series [2] deals with neutrophil infiltration (MPO activity). In words: Effect on zymosan-induced neutrophil infiltration (MPO activity of peritoneal fluid). The following applies: 30 mg/kg body weight orally, FIG. 1; for MPO activity with respect to the vehicle: 1 hour before intra-peritoneal zymosan, peritoneal fluid after 3 hours. In kind it is in vivo, ICR mice. As to the method:
Each candidate compound was administered to 6-week-old male ICR mice, which had been fasted from the day before the initiation of this test. Each candidate compound was suspended in a 3% dimethylsulfoxide/carboxymethyl cellulose sodium solution and the resulting suspension was administered to the mice at a dose of 30 mg/kg body weight/10 mL. After the elapse of one hour, 1 mL of a 0.01% solution of zymosan in physiological saline was intra-peritoneally administered. After 3 hours, 5 mL of physiological saline was intra-peritoneally administered and the test animals were lightly massaged for 30 seconds. The abdominal wall of the test animals were slightly incised to thus collect the peritoneal fluid using a Pasteur pipette. Thereafter, the fluid thus recovered was centrifuged (at 20,000 g, for 20 minutes, at 4° C.), the resulting pellets were washed with a 50 mM sodium phosphate buffer (pH 6.0) and then again centrifuged. To the pellets thus recovered, there was added 0.5% hexadecyl trimethyl ammonium bromide (HTAB) and then centrifuged to thus give a supernatant, which was subsequently used as an enzyme source. To 15 μL of the enzyme source, there were added 200 μL of a 1.154 mM o-di-anisidine and 50 μL of a 0.005% hydrogen peroxide solution and then the optical densities at 450 nm (OD450) were determined to thus calculate the difference: (OD450 observed after 90 seconds from the initiation of the reaction)−(OD450 observed after 30 seconds from the initiation of the reaction), which was herein defined to be MPO activity. In this connection, the MPO activity was calculated, while defining the activity required for increasing the OD450 value by 0.001 as one unit. The MPO activity is herein defined to be the activity of the enzyme present in the neutrophils and accordingly, the reduction in the MPO activity means the inhibition of the neutrophil-infiltration. The results thus obtained are plotted on FIG. 1. […]

A short description of series [3]: Toxicity test by administration of one time (single dose). The following applies: mouse, in vivo. The text has this:
Test Animals Used: ICR Male Mice (5-Week-Old):
They were purchased and then preliminarily kept over one week, prior to the practical use thereof in this test.
Each test group comprised 5 animals.
Inspected Items: Appearance (such as death, weakening); Physical Conditions (such as the presence of lateral turning); Consciousness (such as excitation, lethargy (coma)); Behaviors (such as convulsions); Properties of fecal matters; and Foreign matters present in the urine.

Take `CC(=O)c1c(C)c(Sc2ccc(F)cc2)c(=O)n(-c2ccccc2)c1C` [Compound 62, 5-acetyl-3-(4-fluoro-phenylthio)-4,6-dimethyl-1-phenyl-1H-pyridin-2-one]: the pIC50 in series [1] was 6.24. In series [2], the “MPO activity with respect to the vehicle” value is recorded as “decreases in the MPO activity”. The neutrophil infiltration-inhibitory effect entry in series [2] (zymosan-induced model) was “excellent neutrophil infiltration-inhibitory effects”. Turning to `CC(=O)c1cn(-c2ccccc2)c(=O)c(Sc2ccc(F)cc2)c1C` [Compound 1, 5-acetyl-3-(4-fluorophenylthio)-4-methyl-1-phenyl-1H-pyridin-2-one], the pIC50 in series [1] is 6.40. The “MPO activity with respect to the vehicle” value in series [2] is on record as “decreases in the MPO activity”. In addition, the “Result of single dose toxicity test (death, severe side-effect)” value in series [3] is recorded as “All of the test animals were not died”.

The melting point is the temperature of the solid-liquid transition. Compound `CC(=O)c1cn(-c2ccccc2)c(=O)c(C#N)c1C` [Compound 71, 5-acetyl-4-methyl-2-oxo-1-phenyl-1,2-di-hydro-pyridine-3-carbonitrile] gave a melting point of 215.4 to 216.8 °C. Regarding `CCc1cn(-c2ccccc2)c(=O)c(Sc2ccc(F)cc2)c1C` [Compound 80, 5-Ethyl-3-(4-fluoro-phenylthio)-4-methyl-1-phenyl-1H-pyridin-2-one], the melting point was 116.8 to 118.7 °C. `Cc1c(C(C)O)cn(-c2ccccc2)c(=O)c1Sc1ccc(F)cc1` (stereo not drawn) [Compound 77, 3-(4-Fluoro-phenylthio)-5-(1-hydroxyethyl)-4-methyl-1-phenyl-1H-pyridin-2-one]: the pIC50 in series [1] is 6.01. Regarding `CC(=O)c1cn(-c2ccccc2)c(=O)c(Sc2ncccn2)c1C` [Compound 74, 5-Acetyl-4-methyl-1-phenyl-3-(pyrimidin-2-yl-thio)-1H-pyridin-2-one], the melting point lay within 184.5 to 185.3 °C. As to `CC(=O)c1cn(-c2ccccc2)c(=O)c(Br)c1C` [Compound 70, 5-acetyl-3-bromo-4-methyl-1-phenyl-1H-pyridin-2-one], the melting point lay in the range of 166.5 to 167.4 °C. In turn, `CC(=O)c1c[nH]c(=O)c(Sc2ccc(F)cc2)c1C` [Compound 42, 5-acetyl-3-(4-fluoro-phenylthio)-4-methyl-1H-pyridin-2-one] registered a melting point of 236 to 238 °C.
